In patent US11661397B2, “1,4-disubstituted imidazole derivative” (Sumitomo Pharma Co., Ltd., priority 2015, dated 2023) one finds IC50 data, which are given here for 12 compounds.

Assay [1] concerns HCT-116 cells. Put plainly: Inhibition of sphere-forming ability of cancer cells (Test Example 1). The conditions noted are these: Homo sapiens, 96 h; HCT-116 spheres, non-adherent, serum-free, 4 days, CellTiter-Glo; read-out: Sphere IC50 value (concentration for 50% inhibition of cell proliferation). Type of assay: cell-based. The procedure:
(§1) HCT-116 cells were available from the American Type Culture Collection (ATCC). HCT-116 cells were cultured at 37° C. and 5% CO2 using the McCoy's 5a medium containing 10% fetal bovine serum (FBS) and 1% penicillin/streptomycin. […] The test compounds were added into each well to adjust the final concentration of DMSO to 0.1%, and the cells were cultured for 4 days.
On the technique in general: In ATP-based viability assays light output follows the ATP content of the culture.

Assay [2] has as its system HCT-116 cells. Put plainly: Test for inhibiting sphere-forming ability of cancer cells in the presence of BSA (Test Example 2). The settings on record: Homo sapiens, 96 h; HCT-116 spheres, 5% bovine serum albumin (BSA), 4 days, CellTiter-Glo; read-out: Sphere IC50 value (concentration for 50% inhibition of cell proliferation). It is filed as cell-based. Here is the method: as §1

The structures appear in SMILES notation. A value given as a limit tells only on which side of the number the result lay.

Regarding `CC(C)(O)c1ccc(/C=C/C(=O)Nc2cn(Cc3cccc(C(F)(F)F)c3)cn2)cn1` [Example 53, (2E)-3-[6-(2-Hydroxypropan-2-yl)pyridin-3-yl]-N-{1-[3-(trifluoromethyl)benzyl]-1H-imidazol-4-yl}prop-2-enamide], the IC50 with HCT-116 cells [1] is 7200 nM; in the assay on HCT-116 cells [2] it was less than 10000 nM.
Taken in the same sequence, the figures for `O=C(Nc1cn(Cc2ccc(F)c(F)c2)cn1)c1cnc(CO)c(C(F)F)c1` [Example 54, N-[1-(3,4-difluorobenzyl)-1H-imidazol-4-yl]-5-(difluoromethyl)-6-(hydroxymethyl)nicotinamide] were 148 nM and 603 nM.
For `O=C(Nc1cn(Cc2cccc(Cl)c2)cn1)c1cnc(CO)c(C(F)F)c1` [Example 55, N-[1-(3-chlorobenzyl)-1H-imidazol-4-yl]-5-(difluoromethyl)-6-(hydroxymethyl)nicotinamide], the IC50 amounted to 75 nM with HCT-116 cells [1] and 619 nM with HCT-116 cells [2].
Taken in the same sequence, the figures for `O=C(Nc1cn(Cc2ccc(F)c(C(F)(F)F)c2)cn1)c1cnc(CO)c(C(F)F)c1` [Example 57, 5-(difluoromethyl)-N-{1-[4-fluoro-3-(trifluoromethyl)benzyl]-1H-imidazol-4-yl}-6-(hydroxymethyl)nicotinamide] were less than 10 nM and 50 nM.
Taken in the same sequence, the figures for `O=C(Nc1cn(Cc2cccc(Br)c2)cn1)c1cnc(CO)c(C(F)F)c1` [Example 58, N-[1-(3-bromobenzyl)-1H-imidazol-4-yl]-5-(difluoromethyl)-6-(hydroxymethyl)nicotinamide] were 70 nM and 80 nM.
Taken in the same sequence, the figures for `O=C(Nc1cn(Cc2cc(F)cc(C(F)(F)F)c2)cn1)c1cnc(CO)c(C(F)F)c1` [Example 60, 5-(difluoromethyl)-N-{1-[3-fluoro-5-(trifluoromethyl)benzyl]-1H-imidazol-4-yl}-6-(hydroxymethyl)nicotinamide] were 30 nM and 60 nM.
On to `O=C(Nc1cn(Cc2ccc(F)c(Cl)c2)cn1)c1cnc(CO)c(C(F)F)c1` [Example 61, N-[1-(3-chloro-4-fluorobenzyl)-1H-imidazol-4-yl]-5-(difluoromethyl)-6-(hydroxymethyl)nicotinamide], for which the IC50 with HCT-116 cells [1] is less than 10 nM; with HCT-116 cells [2], 30 nM.
Taken in the same sequence, the figures for `O=C(Nc1cn(Cc2ccc(F)c(Br)c2)cn1)c1cnc(CO)c(C(F)F)c1` [Example 62, N-[1-(3-bromo-4-fluorobenzyl)-1H-imidazol-4-yl]-5-(difluoromethyl)-6-(hydroxymethyl)nicotinamide] were less than 10 nM and 50 nM.
Taken in the same sequence, the figures for `Cc1cccc(Cn2cnc(NC(=O)c3cnc(CO)c(C(F)F)c3)c2)c1` [Example 63, 5-(difluoromethyl)-6-(hydroxymethyl)-N-[1-(3-methylbenzyl)-1H-imidazol-4-yl]nicotinamide] were 690 nM and 600 nM.
Turning to `COc1cc(Cn2cnc(NC(=O)c3cnc(CO)c(C(F)F)c3)c2)cc(C(F)(F)F)c1` [Example 65, 5-(difluoromethyl)-6-(hydroxymethyl)-N-{1-[3-methoxy-5-(trifluoromethyl)benzyl]-1H-imidazol-4-yl}nicotinamide], the IC50 in the assay with HCT-116 cells [1] came out at 630 nM; in the assay with HCT-116 cells [2] it was 660 nM.
Taken in the same sequence, the figures for `O=C(Nc1cn(Cc2ccc(Cl)c(F)c2)cn1)c1cnc(CO)c(C(F)F)c1` [Example 66, N-[1-(4-chloro-3-fluorobenzyl)-1H-imidazol-4-yl]-5-(difluoromethyl)-6-(hydroxymethyl)nicotinamide] were 70 nM and 60 nM.
Taken in the same sequence, the figures for `O=C(Nc1cn(Cc2ccc(Br)c(F)c2)cn1)c1cnc(CO)c(C(F)F)c1` [Example 67, N-[1-(4-bromo-3-fluorobenzyl)-1H-imidazol-4-yl]-5-(difluoromethyl)-6-(hydroxymethyl)nicotinamide] were 40 nM and 70 nM.
